Measured values from patent publication US20210386985A1, “BIODEGRADABLE MICRONEEDLES FOR TRANSDERMAL THERAPEUTIC AGENT DELIVERY” (THE REGENTS OF THE UNIVERSITY OF CALIFORNIA, priority 2018, published 2021).

System: melanoma cell line A375
Assay: In vitro anticancer efficacy of the released DOX (MTT and Live/Dead assay)
Format: cell-based, human
Conditions: A375 cells, microneedles incubated 1 h
Description: A human melanoma cell line A375 was used as the model to investigate the anticancer efficiency of DOX released from the microneedles 14. After incubating microneedles 14 containing 10 μg of DOX with the plated cells for 1 h, the viability of A375 cells was examined using an MTT assay after 24 h. […] The DOX-induced cell death was further investigated by a Live/Dead assay, where live cells metabolized calcein AM into the green fluorescent calcein, and dead cells with compromised membrane integrity were stained by the red fluorescent dye EthD-1. […] The possible reason was that microneedles 14 with more crosslinking time would release less DOX at the same releasing time (1 h).
In vitro anticancer efficacy of the released DOX: In vitro cytotoxicity of the released DOX was evaluated using the melanoma cell line A375 as the model. Specifically, A375 cells were plated in 24-well plates (1×10^6 per well) and incubated for 24 h. Microneedles 14 with different crosslinking degrees were added and incubated for 1 h. After that, the microneedles 14 were removed from the wells, and A375 cells were incubated for another 24 h. The effects of DOX on the metabolic activity of A375 cells in vitro were tested with a rapid colorimetric MTT assay. The absorbance of the wells was read at 570 nm with 630 nm as the reference. […]

For `COc1cccc2c1C(=O)c1c(O)c3c(c(O)c1C2=O)C[C@@](O)(C(=O)CO)C[C@@H]3O[C@H]1C[C@H](N)[C@H](O)[C@H](C)O1` [DOX, doxorubicin], the “cell death (Live/Dead assay)” value was “cell death was observed”.
